Laboratory results taken from a melting point compilation (Tetko et al.; mined from patent text by program, amines drawn as free bases though some values may be those of a salt).

Q: For Cc1noc(NC(=O)N2CCN(c3nccc(-c4c(F)cccc4F)n3)CC2)c1C, which melting point is on record?
A: 189 to 190 °C

Q: With N#CCCNC(=O)c1cccc(-c2cccc3sc(Cc4cccc(C(F)(F)F)c4)cc23)c1 as the compound, how does the melting point read?
A: 137 to 138 °C

Q: Which melting point does the source give for C[C@@H]1CC(=O)CC(C)(C)C1=O here?
A: 91 to 92 °C

Q: For CN1CCN(CC(=O)O)CC1, which melting point is on record?
A: 158 to 160 °C

Q: With O=C(O)CCN1CCN(c2cccc(C(F)(F)F)c2)CC1 as the compound, how does the melting point read?
A: 228 to 230 °C

Q: With COCOc1cc(C(=O)O)ccc1-c1ccc(-c2ccccc2)c(-c2ccc3c(c2)C(C)(C)CCC3(C)C)c1 as the compound, how does the melting point read?
A: 122 °C

Q: Which melting point does the source give for COC(=O)CN(CC(COc1ccc(Cl)cc1)OC(C)=O)c1ccccc1 (centres undefined) here?
A: 82 °C

Q: With O=C(c1ccccc1F)C1(O)CCNCC1 as the compound, how does the melting point read?
A: 133 to 135 °C

Q: For Brc1ccc(SCCOCCSc2ccc(Br)cc2)cc1, which melting point is on record?
A: 53 °C

Q: With O=C(c1ccc(C#Cc2ccccc2)cc1)c1ccc(Oc2ccccc2)cc1 as the compound, how does the melting point read?
A: 166 °C

Q: For O=C1CCC(=O)C(Cc2ccccc2)N1 (centres undefined), which melting point is on record?
A: 140 to 141 °C

Q: For CCOC(=O)c1csc(NC(=O)c2cc(C(C)(C)C)c(O)c(C(C)(C)C)c2)n1, which melting point is on record?
A: 233 to 235 °C

Q: Which melting point does the source give for O=c1c2c[nH]c3c(c-2nn1-c1ccc(Cl)cc1)COCC3 here?
A: 335 to 337 °C

Q: With CCCCc1oc2ccccc2c1-c1ncc(-c2ccc3c(Br)c(OCC#N)ccc3c2)o1 as the compound, how does the melting point read?
A: 144 to 146 °C

Q: Which melting point does the source give for CNC(=O)Nc1nccc(Oc2ccc3c(C(=O)Nc4ccc(F)c(C(F)(F)F)c4)cccc3c2)n1 here?
A: 233 to 234 °C

Q: Which melting point does the source give for Cc1ccc(S(=O)(=O)NCCCCOc2ccc(-n3ccnc3)cc2)cc1 here?
A: 96 to 98 °C

Q: Which melting point does the source give for COC(=O)C1=C(C)NC(CC(=O)N2CCN(C3CC4CCC(C3)N4Cc3ccccc3OC)CC2)=C(C(=O)OC)C1c1c(Cl)cccc1Cl (centres undefined) here?
A: 205 to 213 °C

Q: With Cc1nc(CC(C)C)c(C#N)c(-c2ccc(Cl)cc2)c1C(=O)OC(C)(C)C as the compound, how does the melting point read?
A: 70 to 72 °C

Q: With COC(=O)C(CC#Cc1cc2c(O)c(C(=O)NCc3ccc(Cl)cc3)cnc2s1)C(=O)OC as the compound, how does the melting point read?
A: 197 to 198 °C

Q: Which melting point does the source give for CCOC(=O)c1cc(OCC)c(C(=O)OCC)c(OCC)c1 here?
A: 142 to 144 °C

Q: For CC(C)(C)C(NC(=O)c1ccc(Cl)cc1)NC(=S)Nc1cccnc1 (centres undefined), which melting point is on record?
A: 164 to 167 °C

Q: For CCCCC(=O)SCC(Cc1ccccc1)C(=O)Nc1cccc(C(=O)O)c1C (centres undefined), which melting point is on record?
A: 113 to 114 °C

Q: For CN1CCN(CCCc2cc3ccccc3c(=O)[nH]2)CC1, which melting point is on record?
A: 120 to 122 °C

Q: Which melting point does the source give for NC(=O)CC[C@H](NC(=O)CCc1ccc(OCc2ccccc2)cc1OCc1ccccc1)C(=O)N1CCN(Cc2ccccc2)CC1 here?
A: 145 to 147 °C

Q: For COCCOC(=O)C1=C(O)c2ccccc2S(=O)(=O)N1, which melting point is on record?
A: 120 to 122 °C

Q: Which melting point does the source give for CC(=O)OC1CSC(Oc2ccc(-c3ccco3)nc2)C(OC(C)=O)C1OC(C)=O (centres undefined) here?
A: 133 °C

Q: Which melting point does the source give for COc1cc(N)c(Cl)cc1C(=O)NCC1CCN(CCCC(=O)c2ccccc2)CC1 here?
A: 148 to 150 °C

Q: For COc1ccc2c(c1)C(=O)CCC21CCC(=O)NC1=O (centres undefined), which melting point is on record?
A: 214 to 215 °C

Q: Which melting point does the source give for CCOC(=O)CCC(C)Oc1ccc2c(c1)C(N(CC)S(C)(=O)=O)CC(C)(C)O2 (centres undefined) here?
A: 65 to 67 °C

Q: Which melting point does the source give for COc1ccc(CC(=O)c2c(OC)cc(OC)cc2OC)c(OC)c1 here?
A: 109 to 111 °C

Q: With CCCCn1nnnc1-c1ccc(C(=O)NCC2CCCC2(C)C)cc1 (centres undefined) as the compound, how does the melting point read?
A: 106 to 109 °C

Q: For N#Cc1cccc(S(=O)(=O)N2c3ccccc3C[C@H]2C(=O)NCCc2ccccc2)c1, which melting point is on record?
A: 50 °C

Q: With CC1(C)N=C(c2ccccc2F)c2cc([N+](=O)[O-])cc(Br)c2NC1=O as the compound, how does the melting point read?
A: 164 °C

Q: Which melting point does the source give for CCC(C)c1ccc(-n2c(-c3ccc(OCCO)cc3)nc3ccccc3c2=O)cc1 (centres undefined) here?
A: 173 to 175 °C

Q: For COC(=O)CC(NCCN(C)C)C(=O)O (centres undefined), which melting point is on record?
A: 164 to 166 °C

Q: Which melting point does the source give for O=C1c2ccccc2C(=O)N1CCON1CCNC1=Nc1c(Cl)cccc1Cl here?
A: 129 to 130 °C

Q: Which melting point does the source give for OC1CCCN2CCCCC12 (centres undefined) here?
A: 70 °C

Q: Which melting point does the source give for O=C(O)c1cc(OCc2ccccc2)nc(OCc2ccccc2)c1 here?
A: 145 to 147 °C

Q: With COC(=O)n1nc(Oc2c(F)cc(C(F)(F)F)cc2Cl)cc1C as the compound, how does the melting point read?
A: 123 to 125 °C
